Data as given in US8921569B2, “Rationally improved isoniazid and ethionamide derivatives and activity through selective isotopic substitution” (STC.UNM, priority 2007, dated 2014).

Assays:
M bovis BCG [1] = type: cell-based; details: O 1 micrograms per ml, 3 or 4 days after treatment, triplicate cultures
M bovis BCG [2] = type: cell-based; details: O 1 micrograms per ml, cultures at day 4 plated out

With `NN[13C](=O)c1ccncc1` [C13 INH, 4-pyridine-[^13C]carboxylic acid hydrazide] the “antimicrobial effects by cultures optical density, compared with 12C isoniazid” value (M bovis BCG [1]) was “significant increase in activity” and the “activity by CFU (colony forming units), compared with 12C isoniazid” value (M bovis BCG [2]) was “marked expected increase in activity”.
